How the values were obtained:
Experiment in all cases: cells
Conditions in all cases: Homo sapiens
COR-L105 = type: functional, cell-based;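 note: cell growth inhibition determined with a viability assay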
Description: SANGER: Inhibition of human COR-L105 cell growth in a cell viability assay.

ChaGo-K-1 = type: functional, cell-based;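 note: growth inhibition of ChaGo-K-1 cells, read out with a cell viability assay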
Description: SANGER: Inhibition of human ChaGo-K-1 cell growth in a cell viability assay.

D-392MG = type: functional, cell-based
D-423MG = type: functional, cell-based
Description: SANGER: Inhibition of human D-423MG cell growth in a cell viability assay.

D-542MG = type: functional, cell-based
Description: SANGER: Inhibition of human D-542MG cell growth in a cell viability assay.

ECC10 = type: functional, cell-based;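 note: growth inhibition of ECC10 cells, read out by a cell viability assay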
Description: SANGER: Inhibition of human ECC10 cell growth in a cell viability assay.

EFO-27 = type: functional, cell-based;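 note: growth inhibition of EFO-27 cells, read out with a cell viability assay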
Description: SANGER: Inhibition of human EFO-27 cell growth in a cell viability assay.

HCC1395 = type: functional, cell-based;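 note: growth inhibition of HCC1395 cells, read out by a cell viability assay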
Description: SANGER: Inhibition of human HCC1395 cell growth in a cell viability assay.

HCC1419 = type: functional, cell-based;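 note: growth inhibition of human HCC1419 cells, read out as cell viability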
Description: SANGER: Inhibition of human HCC1419 cell growth in a cell viability assay.

HCC1954 = type: functional, cell-based;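 note: growth inhibition of human HCC1954 cells, read out with a cell viability assay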
Description: SANGER: Inhibition of human HCC1954 cell growth in a cell viability assay.

HOP-92 = type: functional, cell-based;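 note: cell viability readout, with IC50 reflecting inhibition of HOP-92 cell growth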
Description: SANGER: Inhibition of human HOP-92 cell growth in a cell viability assay.

HOS = type: functional, cell-based;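 note: growth inhibition of human HOS cells, read out with a cell viability assay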
Description: SANGER: Inhibition of human HOS cell growth in a cell viability assay.

HPAF-II = type: functional, cell-based;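 note: growth inhibition of HPAF-II cells, read out with a cell viability assay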
Description: SANGER: Inhibition of human HPAF-II cell growth in a cell viability assay.

HT1197 = type: functional, cell-based, HT-1197
Description: SANGER: Inhibition of human HT-1197 cell growth in a cell viability assay.

HuO-3N1 = type: functional, cell-based;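 note: cell viability readout used to measure how strongly compounds suppress proliferation of human HuO-3N1 cells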
Description: SANGER: Inhibition of human HuO-3N1 cell growth in a cell viability assay.

IGR-1 = type: functional, cell-based;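 note: growth inhibition of human IGR-1 cells, read out with a cell viability assay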
Description: SANGER: Inhibition of human IGR-1 cell growth in a cell viability assay.

LCLC-103H cell line = type: functional, cell-based
Description: SANGER: Inhibition of human LCLC-103H cell growth in a cell viability assay.

LoVo = type: functional, cell-based;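 note: growth inhibition of human LoVo cells, read out with a cell viability assay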
Description: SANGER: Inhibition of human LoVo cell growth in a cell viability assay.

M059J = type: functional, cell-based;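 note: growth inhibition of M059J cells, read out with a cell viability assay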
Description: SANGER: Inhibition of human M059J cell growth in a cell viability assay.

NB17 = type: functional, cell-based;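 note: growth inhibition of NB17 cells, read out with a cell viability assay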
Description: SANGER: Inhibition of human NB17 cell growth in a cell viability assay.

NB7 = type: functional, cell-based;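 note: growth inhibition of NB7 cells, read out with a cell viability assay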
Description: SANGER: Inhibition of human NB7 cell growth in a cell viability assay.

NCI-H1651 = type: functional, cell-based;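 note: Read-out is a cell viability assay, with IC50 expressing inhibition of NCI-H1651 cell growth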
Description: SANGER: Inhibition of human NCI-H1651 cell growth in a cell viability assay.

NCI-H1792 = type: functional, cell-based;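 note: growth inhibition of human NCI-H1792 cells, read out as cell viability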
Description: SANGER: Inhibition of human NCI-H1792 cell growth in a cell viability assay.

NCI-H810 = type: functional, cell-based;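 note: IC50 reflects inhibition of cancer cell line growth, read out with a cell viability assay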
Description: SANGER: Inhibition of human NCI-H810 cell growth in a cell viability assay.

OE19 = type: functional, cell-based;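 note: growth inhibition of OE19 cells, measured through a cell viability read-out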
Description: SANGER: Inhibition of human OE19 cell growth in a cell viability assay.

S-117 = type: functional, cell-based
Description: SANGER: Inhibition of human S-117 cell growth in a cell viability assay.

SBC-5 = type: functional, cell-based;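 note: cell viability assay read-out, IC50 is the concentration that inhibits growth of the cells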
Description: SANGER: Inhibition of human SBC-5 cell growth in a cell viability assay.

SCC-4 = type: functional, cell-based;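 note: growth inhibition of human SCC-4 cells, read out as cell viability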
Description: SANGER: Inhibition of human SCC-4 cell growth in a cell viability assay.

SK-N-AS = type: functional, cell-based;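 note: growth inhibition of human SK-N-AS cells, measured with a cell viability assay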
Description: SANGER: Inhibition of human SK-N-AS cell growth in a cell viability assay.

SN12C = type: functional, cell-based;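 note: growth inhibition of human SN12C cells, measured by a cell viability assay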
Description: SANGER: Inhibition of human SN12C cell growth in a cell viability assay.

SNU-423 = type: functional, cell-based
Description: SANGER: Inhibition of human SNU-423 cell growth in a cell viability assay.

SW1573 = type: functional, cell-based;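 note: growth inhibition of SW1573 cells, read out with a cell viability assay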
Description: SANGER: Inhibition of human SW1573 cell growth in a cell viability assay.

SW756 = type: functional, cell-based;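 note: growth inhibition of human SW756 cells, read out with a cell viability assay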
Description: SANGER: Inhibition of human SW756 cell growth in a cell viability assay.

SW837 = type: functional, cell-based;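 note: growth inhibition of SW837 cells, determined with a cell viability assay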
Description: SANGER: Inhibition of human SW837 cell growth in a cell viability assay.

SW948 = type: functional, cell-based;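 note: growth inhibition of SW948 cells, read out with a cell viability assay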
Description: SANGER: Inhibition of human SW948 cell growth in a cell viability assay.

A-431 = type: functional, cell-based;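 note: growth inhibition of A-431 cells, determined with a cell viability read-out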
Description: SANGER: Inhibition of human A431 cell growth in a cell viability assay.

A549 = type: functional, cell-based;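 note: growth inhibition of A549 cells, read out with a cell viability assay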
Description: SANGER: Inhibition of human A549 cell growth in a cell viability assay.

ABC-1 = type: functional, cell-based;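 note: growth inhibition of human ABC-1 cells, read out by a cell viability assay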
Description: SANGER: Inhibition of human ABC-1 cell growth in a cell viability assay.

CAL-27 = type: functional, cell-based;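 note: Viability-based readout, IC50 reflecting inhibition of CAL-27 cell growth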
Description: SANGER: Inhibition of human CAL-27 cell growth in a cell viability assay.

CAL-72 = type: functional, cell-based;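 note: cell viability assay measuring inhibition of proliferation in the CAL-72 cell line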
Description: SANGER: Inhibition of human CAL-72 cell growth in a cell viability assay.

U-251 = type: functional, cell-based;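 note: growth inhibition of human U-251 cells, read out through a cell viability assay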
Description: SANGER: Inhibition of human U251 cell growth in a cell viability assay.

CFPAC-1 = type: functional, cell-based;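 note: cell viability readout used to gauge suppression of CFPAC-1 cell proliferation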
Description: SANGER: Inhibition of human CFPAC-1 cell growth in a cell viability assay.

LB996-RCC = type: functional, cell-based
Description: SANGER: Inhibition of human LB996-RCC cell growth in a cell viability assay.

A253 cell line = type: functional, cell-based;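 note: growth inhibition of A253 cells, read out with a cell viability assay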
Description: SANGER: Inhibition of human A253 cell growth in a cell viability assay.

Measured: IC50

Cn1cc(/C=C2\C(=O)Nc3cccnc32)c2ccccc21
> 2000 nM: ChaGo-K-1 | D-392MG | D-423MG | D-542MG | ECC10 | EFO-27 | HCC1395 | HCC1419 | HCC1954 | HOP-92 | HOS | HPAF-II | HT1197 | HuO-3N1 | IGR-1 | LCLC-103H cell line | LoVo | M059J | NB17 | NCI-H1651 | NCI-H1792 | NCI-H810 | OE19 | S-117 | SBC-5 | SCC-4 | SK-N-AS | SN12C | SNU-423 | SW1573 | SW837 | SW948 | A-431 | A549 | ABC-1 | CAL-27 | CAL-72 | U-251 | CFPAC-1
440 nM: SW756
1980 nM: NB7
494 nM: COR-L105

C[C@]12O[C@H](C[C@]1(O)CO)n1c3ccccc3c3c4c(c5c6ccccc6n2c5c31)CNC4=O [LESTAURTINIB]
909 nM: HOP-92
382 nM: NB17
145 nM: SK-N-AS
1960 nM: ChaGo-K-1
1120 nM: S-117
1490 nM: IGR-1
387 nM: A-431
605 nM: HuO-3N1
> 2000 nM: COR-L105 | D-542MG | HCC1395 | HCC1419 | HCC1954 | HPAF-II | HT1197 | LCLC-103H cell line | NCI-H1651 | OE19 | SW837 | SW948 | ABC-1 | CAL-72 | U-251 | CFPAC-1
1070 nM: SW1573
311 nM: ECC10
31.9 nM: LoVo
1030 nM: EFO-27
254 nM: SBC-5
437 nM: CAL-27
571 nM: D-423MG
398 nM: SN12C
194 nM: A549
516 nM: M059J
995 nM: NCI-H810
1360 nM: SCC-4
880 nM: NCI-H1792
593 nM: D-392MG
899 nM: NB7
232 nM: HOS
731 nM: SNU-423
630 nM: SW756

O=c1cc(N2CCOCC2)oc2c(-c3cccc4c3sc3ccccc34)cccc12
1690 nM: D-423MG
867 nM: LoVo
622 nM: SK-N-AS
466 nM: HuO-3N1
1250 nM: NB7
> 2000 nM: COR-L105 | ChaGo-K-1 | D-392MG | D-542MG | EFO-27 | HCC1395 | HCC1419 | HCC1954 | HOP-92 | HOS | HPAF-II | HT1197 | IGR-1 | LB996-RCC | LCLC-103H cell line | M059J | NB17 | NCI-H1651 | NCI-H1792 | NCI-H810 | OE19 | S-117 | SBC-5 | SCC-4 | SN12C | SNU-423 | SW1573 | SW756 | SW837 | SW948 | A253 cell line | A-431 | A549 | ABC-1 | CAL-27 | CAL-72 | U-251 | CFPAC-1

Source: ChEMBL document CHEMBL1201861, “Genomics of Drug Sensitity in Cancer screening data, Wellcome Trust Sanger Institute”
